Measurements as given in publication PMC5958743, “A Novel Catecholopyrimidine Based Small Molecule PDE4B Inhibitor Suppresses Inflammatory Cytokines in Atopic Mice” (Frontiers in Pharmacology, 2018).

Columns and labels:
[1] = system: DNCB-induced NC/Nga mice; experiment: DNCB-induced atopic dermatitis model, evaluation of skin lesion and organs; format: in vivo, mouse; details: for dorsal skin thickness / spleen weight / subiliac lymph node size / subiliac lymph node weight / week after which significant reduction in dermatitis score was observed / scratching frequency (DNCB-induced itching sensation) / dermatitis score / AD-like skin features (erythema, hemorrhage, dry skin): DNCB-induced mice; for dorsal skin thickness: end of experiment, DNCB alone 1.19 mm, control 0.45 mm; for dorsal skin thickness / spleen weight / subiliac lymph node size / subiliac lymph node weight: topical 1% compound 1 or 0.3% compound 2; for spleen weight / subiliac lymph node size / subiliac lymph node weight / AD-like skin features (erythema, hemorrhage, dry skin): vs DNCB alone; for week after which significant reduction in dermatitis score was observed / scratching frequency (DNCB-induced itching sensation) / dermatitis score / AD-like skin features (erythema, hemorrhage, dry skin): topical once daily, 1% compound 1 or 0.3% compound 2; for scratching frequency (DNCB-induced itching sensation): measured once-a-week for 5 weeks; for dermatitis score: p < 0.01 vs DNCB; for skin feature of compound alone treated mice: no DNCB, topical 1% compound 1 or 0.3% compound 2 with vehicle alone
Method: (§1) Male NC/Nga mice, 7-weeks-old, were purchased from Central Lab Animal Inc., South Korea. All mice were housed in specific pathogen-free conditions at the animal facility center of the College of Pharmacy at Seoul National University (Seoul, Korea), and were maintained at 24 – 26°C with a 12 h light and dark cycle. Animal experiments were conducted in accordance with protocols approved by the Institutional Animal Care and Use Committee of Seoul National University.
(§2) NC/Nga mice were classified into six groups (n = 6): (1) vehicle alone, acetone-olive oil (Sigma-Aldrich, St. Louis, MO, United States) in a ratio of 3:1 was used as a vehicle; (2) 1% of compound-1 with vehicle alone; (3) 0.3% of compound-2 with vehicle alone; (4) DNCB+vehicle; (5) DNCB + 1% of compound-1 mixed with vehicle; and (6) DNCB + 0.3% of compound-2 mixed with vehicle. DNCB (Sigma-Aldrich, St. Louis, MO, United States) was used to induce AD on the dorsal skin of the mice. Compound 1 and 2 were dissolved in 150 μl of vehicle and topically applied on the atopic tissue. Hair on the backs of the mice were removed using an electric clipper. Two days later, 150 μl of 1% DNCB was dissolved in the vehicle and applied on the dorsal skin twice with an interval period of 4 days. Afterward, 150 μl of 0.2% DNCB dissolved in the vehicle was applied to challenge the dorsal skin twice-a-week for 5 weeks. AD-induced mice were co-treated with either compound-1 or compound-2 once daily from day six onward until the end of the experiments.
Dermatitis score was measured according to a previously established method, once-a-week for 5 weeks ([Matsuda et al., 1997]). Skin features of dermatitis, such as erythema/hemorrhage, edema, excoriation/erosion, and scaling/dryness were considered in the evaluation. Each symptom was scored as follows: 0 (none); 1 (mild); 2 (moderate); and 3 (severe). The sum of all the scores was defined as the dermatitis score of individual mice, which ranged between 0 and 12. In addition, the scratching behavior of the experimental animals was measured once-a-week for 5 weeks. Specifically, we measured the frequency with which the mice rubbed their dorsal skin, hind paws, nose, and ears for 10 min.

[2] = system: DNCB-induced NC/Nga mice; experiment: DNCB-induced atopic dermatitis model, serum IgE and cytokines by ELISA; format: in vivo, mouse; details: for serum IL-4 level / serum IL-5 level: topical 1% compound 1 (p < 0.05) or 0.3% compound 2 (p < 0.01); for serum IL-4 level / serum IL-5 level / serum IL-17 level: vs DNCB alone; for serum IL-17 level: topical 1% compound 1 (p < 0.5) or 0.3% compound 2 (p < 0.01); for serum IFN-γ level (reduced by DNCB): topical 1% compound 1 or 0.3% compound 2; for serum IgE level: topical 1% compound 1 or 0.3% compound 2, p < 0.01 vs DNCB
Method: as §1, §2
On the final day of the experimental scheme, blood samples were collected from the experimental animals. Serum was isolated and stored at -80°C along with protease inhibitor cocktail for later use (Thermo Fisher Scientific, United States). Serum IL-4, IL-5, IL-17, IFN-γ, and IgE levels were measured according to the manufacturer’s instructions (Biolegend, San Diego, CA, United States; IL-4-431101; IL-17-432501; IL-5-431204; IFN-γ- 430801; IgE-432401; TNF-α- 430901). Serum samples were diluted five-fold for the cytokine assay. 10,000-fold diluted serum samples were utilized for the IgE assay. Absorbance was measured immediately at 492 nm using a multiplate reader (Molecular Devices Spectramax M5, Sunnyvale, CA, United States).

[3] = target: T1, PDE4A4 (Homo sapiens, UniProt P27815); experiment: PDE enzyme inhibitor assay (LANCE Ultra cAMP), PDE4A; format: biochemical; details: 0.1 ng/well enzyme, 3 nM cAMP, 37°C 1 h
T1 construct: purchased BPS Biosciences
Method: (§3) The enzyme inhibition assay was performed against human PDE enzymes (PDE1A, PDE3A, PDE4A, PDE4B, PDE4C, PDE4D, and PDE7A; BPS Biosciences, San Diego, CA, United States) according to the manufacturer’s instructions (LANCE Ultra cAMP assay kit; Perkin Elmer, United States). In each well, 5 μl of 3 nM cAMP, 2.5 μl of PDE enzyme (0.1 ng/well), and 2.5 μl of inhibitor solution were added, and incubated at 37°C for 1 h. After incubation, 5 μL each of Eu-cAMP and ULight-anti-cAMP detection reagent supplemented with 1 mM of IBMX were added. The reaction mixture was incubated at 37°C for 1 h. After incubation, emission signals were collected at 665 nm using EnVision Multilable Reader (Perkin Elmer, United States).

[4] = system: DNCB-induced NC/Nga mice; experiment: DNCB-induced atopic dermatitis model, histopathology and immunohistochemistry of dorsal skin; format: in vivo, mouse; details: for mast cell infiltration in the epidermis region (toluidine blue), number of mast cells: topical 1% compound 1 or 0.3% compound 2, DNCB alone 97 ± 10.58, control 13 ± 2; for CD4+ cells in the skin (immunohistochemistry) / epidermal thickening (H&E) / infiltration of inflammatory cells into epidermis and dermis (H&E): topical 1% compound 1 or 0.3% compound 2, vs DNCB alone
Method: as §1, §2
Skin samples collected from the experimental mice were fixed by using 10% neutral buffered formalin, and embedded in paraffin. 4-μm thin tissue sections were prepared and stained with hematoxylin and eosin (H&E; Sigma-Aldrich, United States). To investigate the mast cell infiltration, sections were stained with toluidine blue (Sigma-Aldrich, United States). For immunohistochemical analysis, tissue sections were microwaved in sodium citrate buffer for 10 min to retrieve the antigen/epitope. After incubating with 0.1% triton X-100 containing phosphate buffered saline (PBS), sections were blocked with 10% FBS. Then, sections were incubated overnight with primary antibodies specific for IL-4, 5, 17, IFN-γ, and CD4, respectively (Santa Cruz Biotechnology, Santa Cruz, CA, United States). After treatment with 0.3% H2O2 in 0.1 M PBS for 15 min, sections were incubated with HRP-conjugated secondary antibodies specific for IL-4, 5, 17, IFN-γ, and CD4 for 1 h at room temperature. Diaminobenzidine was used to detect peroxidase activity, which was photographed using an Olympus AX70 light microscope (Tokyo, Japan).

[5] = target: T2, PDE4D7 (Homo sapiens, UniProt Q08499); experiment: PDE enzyme inhibitor assay (LANCE Ultra cAMP), PDE4D; format: biochemical; details: for IC50: 0.1 ng/well enzyme, 3 nM cAMP, 37°C 1 h
T2 construct: purchased BPS Biosciences
Method: as §3

[6] = system: Raw 264.7 cells; experiment: Intracellular cAMP in LPS-stimulated macrophage cell line (ELISA); format: cell-based; details: 30 nM compound 1 or 15 nM compound 2 for 1 h, then 1 μM LPS 30 min
Method: (§4) The macrophage cell line, Raw 264.7 was maintained for 24 h in serum free DMEM medium. Then, cells were incubated with 30 nM of compound 1 and 15 nM of compound 2 for 1 h. After incubation, 1 μM of LPS (Sigma-Aldrich, United States) was added and incubated for 30 min at 37°C in a humidified 5% CO2 atmosphere. Finally, cells were lysed and supernatants were harvested. Intracellular cAMP levels were measured using the cAMP ELISA kit according to the manufacturer’s instruction (ADI-900-066; Enzo Life Sciences, United States). Similarly, TNFα level was assayed by ELISA analysis according to the manufacturer’s protocol (LEGEND MAX^TM Human TNF-α ELISA Kit, San Diego, CA, United States). Concentration is expressed in pg/mL.

[7] = target: PDE3B (Homo sapiens, UniProt Q13370); experiment: PDE enzyme inhibitor assay (LANCE Ultra cAMP), PDE3B; format: biochemical; details: 0.1 ng/well enzyme, 3 nM cAMP, 37°C 1 h
[8] = target: T3, PDE1A (Homo sapiens, UniProt P54750); experiment: PDE enzyme inhibitor assay (LANCE Ultra cAMP), PDE1A; format: biochemical; details: 0.1 ng/well enzyme, 3 nM cAMP, 37°C 1 h
T3 construct: purchased BPS Biosciences
Method: as §3

[9] = target: T4, PDE7 (Homo sapiens, UniProt Q13946); experiment: PDE enzyme inhibitor assay (LANCE Ultra cAMP), PDE7; format: biochemical; details: 0.1 ng/well enzyme, 3 nM cAMP, 37°C 1 h
T4 construct: purchased BPS Biosciences
Method: as §3

[10] = system: Raw 264.7 cells; experiment: LPS-induced TNF-α in macrophage cell line (ELISA); format: cell-based; details: 30 nM compound 1 or 15 nM compound 2, 1 μM LPS 30 min
Method: as §4

[11] = target: T5, PDE4C1 (Homo sapiens, UniProt Q08493); experiment: PDE enzyme inhibitor assay (LANCE Ultra cAMP), PDE4C; format: biochemical; details: 0.1 ng/well enzyme, 3 nM cAMP, 37°C 1 h
T5 construct: purchased BPS Biosciences
Method: as §3

[12] = target: T6, PDE4B1 (Homo sapiens, UniProt Q07343); experiment: PDE enzyme inhibitor assay (LANCE Ultra cAMP), PDE4B; format: biochemical; details: for IC50: 0.1 ng/well enzyme, 3 nM cAMP, 37°C 1 h; for specificity against PDE4B compared to other PDE enzymes: versus PDE1A, PDE3B, PDE4A, PDE4C, PDE4D, PDE7
T6 construct: purchased BPS Biosciences
T6 sequence (Q07343 whole entry): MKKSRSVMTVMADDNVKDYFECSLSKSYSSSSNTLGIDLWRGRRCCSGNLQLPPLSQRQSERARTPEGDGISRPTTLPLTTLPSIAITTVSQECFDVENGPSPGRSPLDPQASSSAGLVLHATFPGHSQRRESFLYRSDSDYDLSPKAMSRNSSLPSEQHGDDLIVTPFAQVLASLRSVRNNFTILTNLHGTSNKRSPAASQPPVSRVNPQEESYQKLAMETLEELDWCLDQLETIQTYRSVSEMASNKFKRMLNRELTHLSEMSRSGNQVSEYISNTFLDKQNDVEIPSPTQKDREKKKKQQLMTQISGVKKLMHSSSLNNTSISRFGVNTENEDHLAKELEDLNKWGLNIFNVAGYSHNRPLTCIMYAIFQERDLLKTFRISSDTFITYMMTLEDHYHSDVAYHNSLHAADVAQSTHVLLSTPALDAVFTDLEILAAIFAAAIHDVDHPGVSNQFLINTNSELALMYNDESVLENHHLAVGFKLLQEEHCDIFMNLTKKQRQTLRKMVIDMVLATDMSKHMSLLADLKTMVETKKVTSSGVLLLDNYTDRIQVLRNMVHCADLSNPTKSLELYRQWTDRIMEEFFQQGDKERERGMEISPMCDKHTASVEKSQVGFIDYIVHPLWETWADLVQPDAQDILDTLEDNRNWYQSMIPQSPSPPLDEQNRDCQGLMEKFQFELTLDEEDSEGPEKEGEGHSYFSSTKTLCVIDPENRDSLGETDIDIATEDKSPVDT

T2 sequence (Q08499 1-748 isoform Q08499-11): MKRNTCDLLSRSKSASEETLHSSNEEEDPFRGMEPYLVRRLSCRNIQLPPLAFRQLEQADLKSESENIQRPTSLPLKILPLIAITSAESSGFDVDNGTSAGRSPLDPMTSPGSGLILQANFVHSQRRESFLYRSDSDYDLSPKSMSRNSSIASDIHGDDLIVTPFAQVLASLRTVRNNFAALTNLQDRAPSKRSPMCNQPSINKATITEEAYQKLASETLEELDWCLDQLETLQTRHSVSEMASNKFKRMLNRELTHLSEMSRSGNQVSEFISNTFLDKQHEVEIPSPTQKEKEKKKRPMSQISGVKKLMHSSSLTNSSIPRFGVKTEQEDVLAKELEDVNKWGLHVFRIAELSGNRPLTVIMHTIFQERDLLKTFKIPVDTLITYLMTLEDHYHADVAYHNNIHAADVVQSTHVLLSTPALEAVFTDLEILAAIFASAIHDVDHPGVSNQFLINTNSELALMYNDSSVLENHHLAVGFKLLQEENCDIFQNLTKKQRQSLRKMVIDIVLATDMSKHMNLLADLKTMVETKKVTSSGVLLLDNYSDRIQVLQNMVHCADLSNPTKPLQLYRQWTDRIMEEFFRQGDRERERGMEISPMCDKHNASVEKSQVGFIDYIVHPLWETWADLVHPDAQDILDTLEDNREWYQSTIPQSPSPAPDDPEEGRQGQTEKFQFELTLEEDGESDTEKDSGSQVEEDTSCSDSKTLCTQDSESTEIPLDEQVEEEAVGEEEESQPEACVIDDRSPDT
T3 sequence (P54750 whole entry): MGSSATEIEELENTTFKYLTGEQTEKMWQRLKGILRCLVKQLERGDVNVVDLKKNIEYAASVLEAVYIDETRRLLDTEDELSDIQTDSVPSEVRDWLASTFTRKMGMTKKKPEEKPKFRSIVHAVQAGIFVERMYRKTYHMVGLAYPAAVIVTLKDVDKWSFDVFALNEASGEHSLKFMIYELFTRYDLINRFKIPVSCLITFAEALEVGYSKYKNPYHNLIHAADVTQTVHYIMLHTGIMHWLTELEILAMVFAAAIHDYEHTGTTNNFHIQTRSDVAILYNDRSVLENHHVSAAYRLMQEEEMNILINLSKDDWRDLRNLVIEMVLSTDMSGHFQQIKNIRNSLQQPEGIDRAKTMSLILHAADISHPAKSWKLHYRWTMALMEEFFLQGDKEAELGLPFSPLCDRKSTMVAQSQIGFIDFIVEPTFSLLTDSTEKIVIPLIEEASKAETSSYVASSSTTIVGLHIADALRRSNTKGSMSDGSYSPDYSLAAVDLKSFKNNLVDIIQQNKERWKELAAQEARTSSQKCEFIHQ
T5 sequence (Q08493 whole entry): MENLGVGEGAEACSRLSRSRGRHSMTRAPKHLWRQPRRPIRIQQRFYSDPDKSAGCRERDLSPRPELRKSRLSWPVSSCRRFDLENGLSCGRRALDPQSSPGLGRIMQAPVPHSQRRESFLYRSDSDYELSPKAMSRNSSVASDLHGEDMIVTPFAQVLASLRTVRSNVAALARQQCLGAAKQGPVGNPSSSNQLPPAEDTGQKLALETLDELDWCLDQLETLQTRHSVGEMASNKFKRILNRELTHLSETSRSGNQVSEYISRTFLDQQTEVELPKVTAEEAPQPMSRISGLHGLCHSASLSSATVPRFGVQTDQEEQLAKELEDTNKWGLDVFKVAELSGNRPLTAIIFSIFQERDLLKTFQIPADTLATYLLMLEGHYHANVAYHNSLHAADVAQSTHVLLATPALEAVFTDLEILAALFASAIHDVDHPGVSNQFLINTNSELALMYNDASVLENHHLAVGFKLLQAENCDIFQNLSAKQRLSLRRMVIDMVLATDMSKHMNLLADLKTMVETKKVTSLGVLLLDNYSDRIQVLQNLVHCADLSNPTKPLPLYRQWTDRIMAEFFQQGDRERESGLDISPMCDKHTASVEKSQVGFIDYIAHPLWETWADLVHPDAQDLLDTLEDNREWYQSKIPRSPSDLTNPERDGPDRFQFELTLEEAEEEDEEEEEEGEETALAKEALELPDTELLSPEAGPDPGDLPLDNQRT
Chain of PDE3B (Q13370 whole entry): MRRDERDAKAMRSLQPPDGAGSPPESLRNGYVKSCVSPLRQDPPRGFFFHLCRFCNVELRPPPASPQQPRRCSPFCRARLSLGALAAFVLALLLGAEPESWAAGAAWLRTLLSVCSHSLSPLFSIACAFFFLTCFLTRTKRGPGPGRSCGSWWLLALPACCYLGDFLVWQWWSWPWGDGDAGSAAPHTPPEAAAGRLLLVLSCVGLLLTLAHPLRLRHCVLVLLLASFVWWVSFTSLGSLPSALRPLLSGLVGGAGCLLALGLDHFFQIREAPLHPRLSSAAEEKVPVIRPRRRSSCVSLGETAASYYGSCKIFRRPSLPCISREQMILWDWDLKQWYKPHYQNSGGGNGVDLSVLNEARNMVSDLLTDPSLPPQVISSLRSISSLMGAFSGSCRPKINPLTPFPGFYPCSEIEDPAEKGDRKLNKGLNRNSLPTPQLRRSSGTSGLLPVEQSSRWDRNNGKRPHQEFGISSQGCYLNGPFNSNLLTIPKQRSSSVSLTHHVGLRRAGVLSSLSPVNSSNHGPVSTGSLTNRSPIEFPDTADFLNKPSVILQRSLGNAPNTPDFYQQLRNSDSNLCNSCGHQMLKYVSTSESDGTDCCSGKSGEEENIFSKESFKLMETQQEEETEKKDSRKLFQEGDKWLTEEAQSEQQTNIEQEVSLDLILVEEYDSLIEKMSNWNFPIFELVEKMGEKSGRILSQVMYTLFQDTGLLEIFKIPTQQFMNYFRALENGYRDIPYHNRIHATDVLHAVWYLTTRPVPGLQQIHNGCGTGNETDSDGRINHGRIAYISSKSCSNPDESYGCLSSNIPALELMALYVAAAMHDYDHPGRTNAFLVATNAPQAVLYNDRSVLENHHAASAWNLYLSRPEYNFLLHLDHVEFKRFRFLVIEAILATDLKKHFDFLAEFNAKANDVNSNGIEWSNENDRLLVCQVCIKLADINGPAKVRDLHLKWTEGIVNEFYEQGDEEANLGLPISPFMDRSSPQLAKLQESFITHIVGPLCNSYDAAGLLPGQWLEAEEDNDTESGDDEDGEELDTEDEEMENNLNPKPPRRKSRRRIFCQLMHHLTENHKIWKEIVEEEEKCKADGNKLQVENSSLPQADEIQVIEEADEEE
T1 sequence (P27815 whole entry): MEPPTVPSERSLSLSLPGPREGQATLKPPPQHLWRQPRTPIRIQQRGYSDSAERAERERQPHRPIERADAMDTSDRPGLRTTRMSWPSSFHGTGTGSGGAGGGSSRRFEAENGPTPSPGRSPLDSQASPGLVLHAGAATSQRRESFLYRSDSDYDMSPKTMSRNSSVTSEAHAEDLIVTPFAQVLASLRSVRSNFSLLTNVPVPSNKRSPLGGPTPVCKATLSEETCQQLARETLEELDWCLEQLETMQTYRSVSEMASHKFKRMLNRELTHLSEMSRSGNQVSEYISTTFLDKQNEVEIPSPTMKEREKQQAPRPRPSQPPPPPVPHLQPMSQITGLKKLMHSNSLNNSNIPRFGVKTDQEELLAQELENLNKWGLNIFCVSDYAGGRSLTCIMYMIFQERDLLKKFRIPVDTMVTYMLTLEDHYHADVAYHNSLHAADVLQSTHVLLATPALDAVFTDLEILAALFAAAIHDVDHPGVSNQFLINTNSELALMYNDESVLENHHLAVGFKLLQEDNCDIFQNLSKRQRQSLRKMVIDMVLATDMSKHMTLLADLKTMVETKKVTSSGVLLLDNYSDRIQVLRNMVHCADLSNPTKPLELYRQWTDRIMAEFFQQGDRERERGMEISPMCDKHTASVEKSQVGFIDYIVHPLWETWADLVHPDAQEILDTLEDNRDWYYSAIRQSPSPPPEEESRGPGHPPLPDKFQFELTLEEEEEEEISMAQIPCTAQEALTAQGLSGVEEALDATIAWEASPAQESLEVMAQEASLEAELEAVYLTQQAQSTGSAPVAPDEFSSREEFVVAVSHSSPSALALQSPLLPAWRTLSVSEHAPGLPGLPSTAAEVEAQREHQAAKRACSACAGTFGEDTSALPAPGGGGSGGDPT

SMILES | dorsal skin thickness [1] | spleen weight [1] | subiliac lymph node size [1] | subiliac lymph node weight [1] | week after which significant reduction in dermatitis score was observed [1] | scratching frequency (DNCB-induced itching sensation) [1] | dermatitis score [1] | AD-like skin features (erythema, hemorrhage, dry skin) [1] | skin feature of compound alone treated mice [1] | serum IL-4 level [2] | serum IL-5 level [2] | serum IL-17 level [2] | serum IFN-γ level (reduced by DNCB) [2] | serum IgE level [2] | IC50 [3] | mast cell infiltration in the epidermis region (toluidine blue), number of mast cells [4] | CD4+ cells in the skin (immunohistochemistry) [4] | epidermal thickening (H&E) [4] | infiltration of inflammatory cells into epidermis and dermis (H&E) [4] | IC50 [5] | also measured
COc1ccc(NC(=O)c2cnc(SC)nc2N2CCOCC2)cc1OC [compound 1, N-(3,4-dimethoxyphenyl)-2-(methylthio)-4-morpholinopyrimidine-5-carboxamide] | 0.78 mm | significantly reduced | drastically reduced | drastically reduced | third | significantly (p < 0.01) inhibited | significant reduction | reduced levels of erythema and hemorrhage and dry skin | normal skin feature, no sign of allergy was observed | significantly reversed | significantly reversed | reduced level | significantly reversed | significantly reduced | 0.045 ± 0.00354 µM | 56 ± 11 per 350 μm^2 | reduced levels of CD4+ cells | reduced epidermal thickening | reduced levels of inflammatory cells | 0.22 ± 0.0163 µM | intracellular levels of cAMP [6]: significantly improved; IC50 [7]: 0.8 ± 0.0458 µM; IC50 [8]: 0.756 ± 0.059 µM; IC50 [9]: 0.389 ± 0.0263 µM; LPS-induced TNF-α synthesis [10]: effectively inhibited; IC50 [11]: 0.077 ± 0.0088 µM; IC50 [12]: 0.031 ± 0.00717 µM; specificity against PDE4B compared to other PDE enzymes [12]: not exclusive to PDE4B alone
COc1ccc(-c2nc(C(F)(F)F)ncc2C(=O)Nc2ccncc2)cc1OC [compound 2, 4-(3,4-dimethoxyphenyl)-N-(pyridin-4-yl)-2-(trifluoromethyl)pyrimidine-5-carboxamide] | 0.64 mm | significantly reduced | drastically reduced | drastically reduced | second | significantly (p < 0.01) inhibited | significant reduction | reduced levels of erythema and hemorrhage and dry skin | normal skin feature, no sign of allergy was observed | significantly reversed | significantly reversed | reduced level | significantly reversed | significantly reduced | 0.152 ± 0.00133 µM | 29.41 ± 6 per 350 μm^2 | reduced levels of CD4+ cells | reduced epidermal thickening | reduced levels of inflammatory cells | 0.108 ± 0.00378 µM | concentration required to inhibit PDE4D relative to PDE4B ([5]; PDE4D versus PDE4B): nearly sevenfold higher concentration; intracellular levels of cAMP [6]: significantly improved; IC50 [7]: 0.169 ± 0.00378 µM; IC50 [8]: 0.098 ± 0.00845 µM; IC50 [9]: 0.25 ± 0.0146 µM; LPS-induced TNF-α synthesis [10]: effectively inhibited; IC50 [11]: 0.057 ± 0.00487 µM; IC50 [12]: 0.015 ± 0.0004 µM; specificity against PDE4B compared to other PDE enzymes [12]: high specificity against PDE4B
